Here are results for ten compounds from patent US20230295197A1, “STAT5 and STAT6 Degraders and Uses Thereof” (REGENTS OF THE UNIVERSITY OF MICHICAN, priority 2022, published 2023).

Molecules are shown by their SMILES.

This assay concerns the target T1, STAT6 (Homo sapiens, UniProt P42226).
T1 construct: endogenous in cells; host or cells: MOLM-16, KU-812, SKNO1, MB231, L1236
T1 sequence (P42226 1-847): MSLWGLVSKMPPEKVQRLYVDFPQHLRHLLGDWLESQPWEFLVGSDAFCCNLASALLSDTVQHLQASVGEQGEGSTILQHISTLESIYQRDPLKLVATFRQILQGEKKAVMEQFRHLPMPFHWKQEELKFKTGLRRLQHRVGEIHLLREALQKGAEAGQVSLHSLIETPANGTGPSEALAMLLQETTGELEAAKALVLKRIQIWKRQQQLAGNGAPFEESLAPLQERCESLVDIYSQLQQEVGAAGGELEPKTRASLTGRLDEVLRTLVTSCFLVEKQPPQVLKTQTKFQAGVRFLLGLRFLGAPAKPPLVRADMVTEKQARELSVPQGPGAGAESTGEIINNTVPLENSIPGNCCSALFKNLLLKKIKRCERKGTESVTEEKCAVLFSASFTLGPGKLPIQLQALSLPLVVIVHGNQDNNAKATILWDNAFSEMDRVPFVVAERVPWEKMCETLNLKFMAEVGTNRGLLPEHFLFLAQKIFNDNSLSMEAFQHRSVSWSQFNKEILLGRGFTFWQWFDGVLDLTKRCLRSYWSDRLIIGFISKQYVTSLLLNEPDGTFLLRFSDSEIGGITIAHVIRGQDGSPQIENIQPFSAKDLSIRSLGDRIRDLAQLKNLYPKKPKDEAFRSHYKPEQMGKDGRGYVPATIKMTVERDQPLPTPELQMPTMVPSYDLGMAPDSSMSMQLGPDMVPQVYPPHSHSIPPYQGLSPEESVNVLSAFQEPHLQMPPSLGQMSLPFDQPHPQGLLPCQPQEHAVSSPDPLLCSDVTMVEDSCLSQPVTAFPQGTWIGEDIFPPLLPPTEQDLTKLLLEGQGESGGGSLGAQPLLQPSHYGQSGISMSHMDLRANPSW
Kind of assay: Immunoblotting (Western blot) analysis of STAT6 degradation efficiency of degraders in treated cells. The conditions noted are these: MOLM-16 cells, class symbols, read-out: DC50 S6 MOLM-16. The assay is classed as cell-based. The method, boiled down: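 Cells (~1 million per point) treated with compounds at indicated concentrations and times, lysed in RIPA with protease/phosphatase inhibitors; 20-40 μg protein run on SDS-PAGE and blotted to PVDF. STAT6 or STAT5 rabbit mAbs with GAPDH loading control, IRDye secondaries; near-infrared fluorescence scan, band intensity quantified.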
For the compound `Cc1ncsc1-c1ccc([C@H](C)NC(=O)[C@@H]2C[C@@H](O)CN2C(=O)[C@@H](NC(=O)CCCCNC(=O)COc2ccc3c(c2)CN(C(=O)[C@@H](NC(=O)c2cc4cc(C(F)(F)P(=O)(O)O)ccc4s2)C(C)(C)C)[C@H](C(=O)N2CCC[C@H](c4ccccc4)C2)C3)C(C)(C)C)cc1` [Compound 473, (difluoro(2-(((S)-1-((S)-7-(2-((5-(((S)-1-((2S,4R)-4-hydroxy-2-(((S)-1-(4-(4-methylthiazol-5-yl)phenyl)ethyl)carbamoyl)pyrrolidin-1-yl)-3,3-dimethyl-1-oxobutan-2-yl)amino)-5-oxopentyl)amino)-2-oxoethoxy)-3-((R)-3-phenylpiperidine-1-carbonyl)-3,4-dihydroisoquinolin-2(1H)-yl)-3,3-dimethyl-1-oxobutan-2-yl)carbamoyl)benzo[b]thiophen-5-yl)methyl)phosphonic acid], the DC50 was more than 10 µM. In the case of `Cc1ncsc1-c1ccc([C@H](C)NC(=O)[C@@H]2C[C@@H](O)CN2C(=O)[C@@H](NC(=O)CCCCCNC(=O)COc2ccc3c(c2)CN(C(=O)[C@@H](NC(=O)c2cc4cc(C(F)(F)P(=O)(O)O)ccc4s2)C(C)(C)C)[C@H](C(=O)N2CCC[C@H](c4ccccc4)C2)C3)C(C)(C)C)cc1` [Compound 474, (difluoro(2-(((S)-1-((S)-7-(2-((6-(((S)-1-((2S,4R)-4-hydroxy-2-(((S)-1-(4-(4-methylthiazol-5-yl)phenyl)ethyl)carbamoyl)pyrrolidin-1-yl)-3,3-dimethyl-1-oxobutan-2-yl)amino)-6-oxohexyl)amino)-2-oxoethoxy)-3-((R)-3-phenylpiperidine-1-carbonyl)-3,4-dihydroisoquinolin-2(1H)-yl)-3,3-dimethyl-1-oxobutan-2-yl)carbamoyl)benzo[b]thiophen-5-yl)methyl)phosphonic acid], the DC50 is more than 10 µM. Then `Cc1ncsc1-c1ccc([C@H](C)NC(=O)[C@@H]2C[C@@H](O)CN2C(=O)[C@@H](NC(=O)CCCCCCNC(=O)COc2ccc3c(c2)CN(C(=O)[C@@H](NC(=O)c2cc4cc(C(F)(F)P(=O)(O)O)ccc4s2)C(C)(C)C)[C@H](C(=O)N2CCC[C@H](c4ccccc4)C2)C3)C(C)(C)C)cc1` [Compound 475, (difluoro(2-(((S)-1-((S)-7-(2-((7-(((S)-1-((2S,4R)-4-hydroxy-2-(((S)-1-(4-(4-methylthiazol-5-yl)phenyl)ethyl)carbamoyl)pyrrolidin-1-yl)-3,3-dimethyl-1-oxobutan-2-yl)amino)-7-oxoheptyl)amino)-2-oxoethoxy)-3-((R)-3-phenylpiperidine-1-carbonyl)-3,4-dihydroisoquinolin-2(1H)-yl)-3,3-dimethyl-1-oxobutan-2-yl)carbamoyl)benzo[b]thiophen-5-yl)methyl)phosphonic acid], with more than 10 µM; and `Cc1ncsc1-c1ccc([C@H](C)NC(=O)[C@@H]2C[C@@H](O)CN2C(=O)[C@@H](NC(=O)CCCCCCCNC(=O)COc2ccc3c(c2)CN(C(=O)[C@@H](NC(=O)c2cc4cc(C(F)(F)P(=O)(O)O)ccc4s2)C(C)(C)C)[C@H](C(=O)N2CCC[C@H](c4ccccc4)C2)C3)C(C)(C)C)cc1` [Compound 476, (difluoro(2-(((S)-1-((S)-7-(2-((8-(((S)-1-((2S,4R)-4-hydroxy-2-(((S)-1-(4-(4-methylthiazol-5-yl)phenyl)ethyl)carbamoyl)pyrrolidin-1-yl)-3,3-dimethyl-1-oxobutan-2-yl)amino)-8-oxooctyl)amino)-2-oxoethoxy)-3-((R)-3-phenylpiperidine-1-carbonyl)-3,4-dihydroisoquinolin-2(1H)-yl)-3,3-dimethyl-1-oxobutan-2-yl)carbamoyl)benzo[b]thiophen-5-yl)methyl)phosphonic acid], with more than 10 µM. As to `Cc1ncsc1-c1ccc([C@H](C)NC(=O)[C@@H]2C[C@@H](O)CN2C(=O)[C@@H](NC(=O)CCCCCCCCNC(=O)COc2ccc3c(c2)CN(C(=O)[C@@H](NC(=O)c2cc4cc(C(F)(F)P(=O)(O)O)ccc4s2)C(C)(C)C)[C@H](C(=O)N2CCC[C@H](c4ccccc4)C2)C3)C(C)(C)C)cc1` [Compound 477, (difluoro(2-(((S)-1-((S)-7-(2-((9-(((S)-1-((2S,4R)-4-hydroxy-2-(((S)-1-(4-(4-methylthiazol-5-yl)phenyl)ethyl)carbamoyl)pyrrolidin-1-yl)-3,3-dimethyl-1-oxobutan-2-yl)amino)-9-oxononyl)amino)-2-oxoethoxy)-3-((R)-3-phenylpiperidine-1-carbonyl)-3,4-dihydroisoquinolin-2(1H)-yl)-3,3-dimethyl-1-oxobutan-2-yl)carbamoyl)benzo[b]thiophen-5-yl)methyl)phosphonic acid], the half-maximal degradation concentration (DC50) is more than 10 µM.

Consider `Cc1ncsc1-c1ccc([C@H](C)NC(=O)[C@@H]2C[C@@H](O)CN2C(=O)[C@@H](NC(=O)CCCCCCCCCNC(=O)COc2ccc3c(c2)CN(C(=O)[C@@H](NC(=O)c2cc4cc(C(F)(F)P(=O)(O)O)ccc4s2)C(C)(C)C)[C@H](C(=O)N2CCC[C@H](c4ccccc4)C2)C3)C(C)(C)C)cc1` [Compound 478, (difluoro(2-(((S)-1-((S)-7-(2-((10-(((S)-1-((2S,4R)-4-hydroxy-2-(((S)-1-(4-(4-methylthiazol-5-yl)phenyl)ethyl)carbamoyl)pyrrolidin-1-yl)-3,3-dimethyl-1-oxobutan-2-yl)amino)-10-oxodecyl)amino)-2-oxoethoxy)-3-((R)-3-phenylpiperidine-1-carbonyl)-3,4-dihydroisoquinolin-2(1H)-yl)-3,3-dimethyl-1-oxobutan-2-yl)carbamoyl)benzo[b]thiophen-5-yl)methyl)phosphonic acid], for which the DC50 was more than 10 µM.

`CC(C)(C)[C@H](NC(=O)c1cc2cc(C(F)(F)P(=O)(O)O)ccc2s1)C(=O)N1C[C@@H](OCC(=O)NCC#Cc2cccc3c2C(=O)N(C2CCC(=O)NC2=O)C3=O)C[C@H]1C(=O)N1CCO[C@H](c2ccccc2)C1` (stereo partly drawn) [Compound 479, ((2-(((2S)-1-((2S,4S)-4-(2-((3-(2-(2,6-dioxopiperidin-3-yl)-1,3-dioxoisoindolin-4-yl)prop-2-yn-1-yl)amino)-2-oxoethoxy)-2-((R)-2-phenylmorpholine-4-carbonyl)pyrrolidin-1-yl)-3,3-dimethyl-1-oxobutan-2-yl)carbamoyl)benzo[b]thiophen-5-yl)difluoromethyl)phosphonic acid]: the DC50 is more than 10 µM.

In the case of `CC(C)(C)[C@H](NC(=O)c1cc2cc(C(F)(F)P(=O)(O)O)ccc2s1)C(=O)N1C[C@@H](OCC(=O)NCC#Cc2ccc3c(c2)C(=O)N(C2CCC(=O)NC2=O)C3=O)C[C@H]1C(=O)N1CCO[C@H](c2ccccc2)C1` (stereo partly drawn) [Compound 480, ((2-(((2S)-1-((2S,4S)-4-(2-((3-(2-(2,6-dioxopiperidin-3-yl)-1,3-dioxoisoindolin-5-yl)prop-2-yn-1-yl)amino)-2-oxoethoxy)-2-((R)-2-phenylmorpholine-4-carbonyl)pyrrolidin-1-yl)-3,3-dimethyl-1-oxobutan-2-yl)carbamoyl)benzo[b]thiophen-5-yl)difluoromethyl)phosphonic acid], the half-maximal degradation concentration (DC50) was more than 10 µM.

Regarding `CC(C)(C)[C@H](NC(=O)c1cc2cc(C(F)(F)P(=O)(O)O)ccc2s1)C(=O)N1C[C@@H](OCC(=O)NCCC#Cc2cccc3c2C(=O)N(C2CCC(=O)NC2=O)C3=O)C[C@H]1C(=O)N1CCO[C@H](c2ccccc2)C1` (stereo partly drawn) [Compound 481, ((2-(((2S)-1-((2S,4S)-4-(2-((4-(2-(2,6-dioxopiperidin-3-yl)-1,3-dioxoisoindolin-4-yl)but-3-yn-1-yl)amino)-2-oxoethoxy)-2-((R)-2-phenylmorpholine-4-carbonyl)pyrrolidin-1-yl)-3,3-dimethyl-1-oxobutan-2-yl)carbamoyl)benzo[b]thiophen-5-yl)difluoromethyl)phosphonic acid], the DC50 was more than 10 µM. Turning to `CC(C)(C)[C@H](NC(=O)c1cc2cc(C(F)(F)P(=O)(O)O)ccc2s1)C(=O)N1C[C@@H](OCC(=O)NCCC#Cc2ccc3c(c2)C(=O)N(C2CCC(=O)NC2=O)C3=O)C[C@H]1C(=O)N1CCO[C@H](c2ccccc2)C1` (stereo partly drawn) [Compound 482, ((2-(((2S)-1-((2S,4S)-4-(2-((4-(2-(2,6-dioxopiperidin-3-yl)-1,3-dioxoisoindolin-5-yl)but-3-yn-1-yl)amino)-2-oxoethoxy)-2-((R)-2-phenylmorpholine-4-carbonyl)pyrrolidin-1-yl)-3,3-dimethyl-1-oxobutan-2-yl)carbamoyl)benzo[b]thiophen-5-yl)difluoromethyl)phosphonic acid], the DC50 is more than 10 µM.

In general, DC50 refers to the concentration at which degradation of the target reaches its halfway point.
